{"source": "patent US20080050413A1", "about": "“Medical stent provided with a combination of melatonin and paclitaxel” (priority 2006, published 2008)", "key": {"[1]": {"system": "human coronary artery smooth muscle cells (HCASMC)", "experiment": "CellTiter 96 One solution (MTS) cell proliferation assay, HCASMC", "type": "cell-based", "description": "(§1) Human coronary artery endothelial cells (HCAEC) were purchased from Cambrex and human coronary artery smooth muscle cells (HCASMC) were purchased from Promocell. Cells were used for experiments between passage 4 and passage 12. Both cell types were cultured in their respective complete culture medium with the following composition: HCASMC: Smooth Muscle Cell Growth Medium 2: Epidermal Growth Factor (EGF), basic Fibroblast Factor (FGF), Insulin, Fetal Calf Serum (FCS) 5%, Amphotericin B, Gentamicin. Medium was changed every other day. 24 hours prior to growth factor stimulation, the medium was replaced by fresh culture medium, however, without growth factors to increase the cellular sensitivity to the subsequent growth factor stimulation. Subconfluent HCAEC were stimulated with 10 ng/ml of VEGF-A, whereas subconfluent HCASMC were stimulated with 10 ng/ml of PDGF-BB. Likewise, both cell types were stimulated with 25% of human serum (final concentration). All proliferation and cytotoxicity experiments were performed on cells cultured on 96 well plates (Costar). The CellTiter 96 One solution cell proliferation assay from Promega was used to assess cell proliferation in a 96-well plate. This assay makes use of the MTS tetrazolium compound as a cellular substrate. MTS is bioreduced by living cells into a colored formazan product that is soluble in tissue culture medium and absorbs light at 490 nm. The quantity of formazan produced is directly proportional to the number of living cells in culture. After 24 h stimulation, 20 μl of MTS reagent was added to the cells cultured in 100 μl of medium per well. After 2 to 4 hours of incubation at 37° C., 5% CO2, the absorbance at 490 nm was recorded using a 96-well plate reader (Tecan)."}, "[2]": {"system": "human coronary artery endothelial cells (HCAEC)", "experiment": "CellTiter 96 One solution (MTS) cell proliferation assay, HCAEC", "type": "cell-based", "description": "as §1, with “HCAEC: Endothelial” for “HCASMC: Smooth Muscle Cell”, “Media-2 MV: hEGF, Hydrocortisone, GA-1000, FBS” for “Medium 2: Epidermal Growth Factor (EGF), basic Fibroblast Factor (FGF), Insulin, Fetal Calf Serum (FCS)”, “VEGF, hFGF-B, R3-IGF-1, Ascorbic Acid” for “Amphotericin B, Gentamicin.”"}, "HCAEC [3]": {"system": "HCAEC", "experiment": "CytoTox-ONE LDH release cytotoxicity assay, HCAEC", "type": "cell-based, human", "details": "48 hours, Melatonin 0.2 to 6 mM", "description": "(§2) Cytotoxicity experiments were performed with cells cultured on 96-well plates. The CytoTox-ONE™ Assay from Promega was used to assess the membrane integrity of cells. This test is based on a fluorometric method to estimate the number of non viable cells present in multiwell plates by measuring the release of lactate dehydrogenase (LDH) from cells with damaged membranes. Subconfluent cells were incubated for 48 hours with Melatonin at concentrations between 0.2 and 6 mM. During the 48 h Melatonin incubation, the medium was not changed to avoid removal of any detached cells. As a positive control three wells of untreated cells were incubated with lysis buffer (delivered with the assay) before measurement. At the end of the Melatonin incubation period, a volume of CytoTox-ONE reagent equal to the volume of cell culture medium present in each well was added. After 10 min incubation at 22° C. (room temperature), 50 μl of stop solution was added per 100 μl of CytoTox-ONE reagent added. The plate was shaken for 10 seconds and fluorescence was recorded with an excitation wavelength of 560 nm and an emission wavelength of 590 nm (Spectramax M2 fluorescence plate reader, Molecular devices)."}, "HCASMC": {"system": "HCASMC", "experiment": "CytoTox-ONE LDH release cytotoxicity assay, HCASMC", "type": "cell-based, human", "details": "48 hours, Melatonin 0.2 to 6 mM", "description": "as §2"}, "[4]": {"system": "HUVEC (Human Umbilical Vein Endothelial Cells)", "experiment": "[3H]-thymidine incorporation, HUVEC stimulated with VEGF-A", "type": "cell-based", "details": "VEGF A 10 ng/ml 24 hours", "description": "To investigate, whether melatonin has similar effects on other cell types, HUVEC (Human Umbilical Vein Endothelial Cells, Promocell) were tested. HUVEC were cultured in the corresponding complete medium (Endothelial Cell Growth Medium: ECGS/H 0.4%, Fetal Calf Serum 2%, Epidermal Growth Factor 0.1 ng/ml, Hydrocortisone 1 μg/ml, basic Fibroblast Factor 1 ng/ml, Amphotericin B 50 ng/ml, Gentamicin 50 μg/ml). 24 hours prior to stimulation, the medium was replaced by a medium containing 2% serum and antibiotics, but devoid of the other complements. Then, HUVEC were stimulated with 10 ng/ml of VEGF-A for 24 hours. HUVEC were incubated for 48 hours with Melatonin and stimulated for 24 hours with VEGF-A at 10 ng/ml. After 24 hours of stimulation, the cells were incubated with radioactive [^3H]-thymidine. Two hour later, the medium was removed and cell-bound DNA was precipitated using 5% TCA (Trichloroacetic acid). Then, [^3H]-thymidine incorporation was measured using a beta-counter."}, "HCAEC [5]": {"system": "HCAEC", "experiment": "Chemotaxis towards VEGF-A, modified Boyden chamber, HCAEC", "type": "cell-based, human", "details": "2 mM Melatonin for 48 hours; VEGF-A 10 ng/ml; migration 4 hours; performed only once", "description": "Chemotaxis experiments were performed using a modified Boyden chamber. The apparatus consists of two multi-well chambers separated by a filter containing pores of uniform size. A solution containing a chemokine or chemotactic factor is placed in the lower/bottom chamber and a cell suspension is placed in the upper chamber. Cells can migrate through the pores across the filter and towards the chemoattractant in the lower chamber. Cells that migrated across the filter and remain attached to the lower side of the membrane are counted. Data are expressed in terms of migration index: the number of cells that migrated in response to agonist stimulation compared to the number of cells that migrated randomly, i.e. to medium only. Chemotaxis experiments so far were only performed with HCAEC. For these cells a 25×80 mm polycarbonate filter, […] (PVP) free was used (Whatman) with a pore size of […]. Before migration the filter was coated with collagen. Endothelial cells were incubated with Melatonin at 2 mM prior to and during migration. […] Cells were stimulated with VEGF-A at 10 ng/ml. Cells were allowed to migrate for 4 hours at 37° C./5% CO2. At the end of migration, cells were fixed on the filter, stained with Giemsa and counted using a regular optic microscope."}}, "note": "Several values for one entry are separate records, joined by “and”; a condition that tells them apart may be missing. Equal entries are not always repeated.", "data": [{"compound": "COc1ccc2[nH]cc(CCNC(C)=O)c2c1", "note": "[Melatonin, N-acetyl-5-methoxytryptamine]", "values": [{"measurement": "effect on number of smooth muscle cells", "setting": "[1]; 1 mM Melatonin, 24 hours pre-treatment, PDGF BB 10 ng/ml 24 h", "value": "significant decrease in the number of smooth muscle cells"}, {"measurement": "concentration at which proliferation is strongly inhibited", "setting": "[1]; HCASMC", "value": "higher than 0.2 mM"}, {"measurement": "effect on proliferation of HCASMC", "setting": "[1]; Melatonin up to 0.1 mM, PDGF BB 10 ng/ml 24 h", "value": "no significant effect"}, {"measurement": "concentration of maximal inhibitory effect", "setting": "[1]; tested up to 10 mM", "value": 5, "unit": "mM"}, {"measurement": "concentration at which proliferation is strongly inhibited", "setting": "[2]; HCAEC", "value": "higher than 0.2 mM"}, {"measurement": "effect on cell number", "setting": "[2]; Melatonin between 1 mM and 6 mM", "value": "dramatic decrease in cell number"}, {"measurement": "concentration of maximal effect", "setting": "[2]; tested 1 μM to 6 mM", "value": "3 mM and 6 mM"}, {"measurement": "sensitivity of HCAEC to Melatonin", "setting": "[2]; up to 0.1 mM Melatonin", "value": "not sensitive"}, {"measurement": "cytotoxic effect (LDH release)", "setting": "HCAEC [3]", "value": "does not induce any detectable cytotoxic effect"}, {"measurement": "cytotoxic effect (LDH release)", "setting": "HCASMC", "value": "does not induce any detectable cytotoxic effect"}, {"measurement": "effect on HUVEC ([3H]-thymidine incorporation)", "setting": "[4]; 0.2 mM Melatonin, 48 hours", "value": "inhibitory effect"}, {"measurement": "VEGF-A induced [3H]-thymidine incorporation", "setting": "[4]; Melatonin 48 hours", "value": "completely inhibited"}, {"measurement": "effect on chemotactic response towards VEGF-A", "setting": "HCAEC [5]", "value": "did not have any significant effect"}]}]}
